{"source": "patent EP0080940B1", "about": "“Derivatives of 2-phenyl-morpholine and medical compositions” (LABORATOIRE L. LAFON Société anonyme dite:, priority 1981, dated 1983)", "key": {"[1]": {"test_system": "rats", "experiment": "Interaction with apomorphine, rat", "assay_type": "in vivo", "details": "apomorphine 0,5 mg/kg s.c.", "protocol": "Le CRL 40914 est administré aux rats une demi-heure avant l'injection sous-cutanée de 0,5 mg/kg d'apomorphine.\n(§1) On a résumé ci-après les résultats des essais qui ont été entrepris chez l'animal avec le CRL 40915, les modalités opératoires étant celles données ci-dessus pour le CR L 40914."}, "[2]": {"test_system": "souris", "experiment": "Motility reduced by habituation to the enclosure", "assay_type": "in vivo", "details": "64 mg/kg i.p.", "protocol": "Après 18 h de séjour dans les actimètres, les souris (6 par dose, 12 témoins) reçoivent le CRL 40914. Elles sont aussitôt replacées dans leurs enceintes respectives et, une demi-heure plus tard, on enregistre leur motilité pendant 30 min.\nas §1"}, "[3]": {"test_system": "homme", "experiment": "Clinical use by the oral route", "assay_type": "in vivo", "details": "voie orale, 2 à 3 comprimés ou gélules (10 à 20 mg chacun) par jour"}, "[4]": {"test_system": "souris", "experiment": "Interaction with yohimbine, spontaneous motility", "assay_type": "in vivo", "details": "yohimbine 0,5 mg/kg i.p.", "protocol": "Des lots de 12 souris reçoivent la yohimbine (0,5 mg/kg i.p.) et le CRL 40914 respectivement 60 et 30 min avant d'être placées en actimètre où leur motilité est enregistrée pendant une demi-heure."}, "[5]": {"test_system": "rats génétiquement hypertendus", "experiment": "Action on the cardiovascular system", "assay_type": "in vivo, rat", "details": "20 mg/kg par voie buccale", "protocol": "Six rats génétiquement hypertendus à cathéter artériel fémoral implanté reçoivent le CRL 40914 à la dose de 20 mg/kg par voie buccale."}, "[6]": {"test_system": "souris", "experiment": "Interaction with yohimbine, temperature", "assay_type": "in vivo", "details": "1 mg/kg et 16 mg/kg de CRL 40914, yohimbine 0,5 mg/kg i.p. une demi-heure avant", "protocol": "Des lots de 12 souris reçoivent une injection intrapéritonéale de 0,5 mg/kg de yohimbine, une demi-heure avant l'administration de CRL 40914."}, "[7]": {"test_system": "souris", "experiment": "Behavioural despair (immobility in water)", "assay_type": "in vivo", "details": "souris en immersion, dès 4 mg/kg i.p.; effet particulièrement net à 64 mg/kg", "from_the_text": "Une demi-heure après avoir reçu le CRL 40914 ou la désipramine, des lots de 10 souris sont plongés dans un bécher rempli d'eau sur une hauteur de 6 cm. On note la durée d'immobilité de la souris entre la 2ème et la 6ème min suivant son immersion."}, "[8]": {"test_system": "souris", "experiment": "Asphyxic anoxia (gallamine triethiodide)", "assay_type": "in vivo", "protocol": "Des lots de 10 souris reçoivent le CRL 40914 une demi-heure avant l'administration intrapéritonéale de 32 mg/kg de triiodoéthylate de gallamine (agent curarisant de référence).\nas §1"}, "[9]": {"test_system": "souris", "experiment": "Interaction with reserpine", "assay_type": "in vivo", "details": "4 mg/kg mais surtout 16 mg/kg et 64 mg/kg i.p., 4 h après réserpine 2,5 mg/kg i.p.", "protocol": "Quatre heures après l'injection intrapéritonéale de 2,5 mg/kg de réserpine, des lots de 6 souris reçoivent le CRL 40914.\nas §1"}, "[10]": {"test_system": "rats", "experiment": "Search for stereotyped movements", "assay_type": "in vivo", "details": "rat", "protocol": "Des lots de 6 rats reçoivent une injection intrapéritonéale de CRL 40914 ou d'amphétamine puis sont immédiatement placés dans des boîtes de petites dimensions où leur comportement stéréotypé est coté de 0 à 3 toutes les 10 min jusqu'à extinction de l'effet."}, "[11]": {"test_system": "souris", "experiment": "Action on rectal temperature", "assay_type": "in vivo", "protocol": "(§2) On a résumé ci-après les résultats des essais qui ont été entrepris chez l'animal avec le CRL 40914, ce produit étant administré, sauf indications contraires, en solution dans l'eau (à pH 5) par voie intrapéritonéale sous un volume de 20 ml/kg chez la souris mâle et de 5 ml/kg chez le rat mâle.\nDes lots de 6 souris reçoivent le CRL 40914; la température rectale est notée toutes les 30 min."}, "[12]": {"test_system": "souris", "experiment": "Interaction with barbital", "assay_type": "in vivo", "details": "barbital sodique 220 mg/kg i.p.", "protocol": "Des lots de 10 souris reçoivent le CRL 40914 une demi-heure avant l'injection intrapéritonéale de 220 mg/kg de barbital sodique."}, "[13]": {"test_system": "souris", "experiment": "Global behaviour and reactivity, mouse", "assay_type": "in vivo", "protocol": "as §2\nDes lots de 3 animaux sont observés avant, puis 15 min, 30 min, 1 h, 2 h, 3 h et 24 h après l'administration de CRL 40914. On observe ce qui suit:\nas §1"}, "[14]": {"test_system": "souris", "experiment": "Action on spontaneous motility (actimeter)", "assay_type": "in vivo", "protocol": "Une demi-heure après avoir reçu le CRL 40914, des souris sont placées en actimètre où leur motilité est enregistrée pendant 30 min.\nas §1"}, "[15]": {"test_system": "souris mâle", "experiment": "Action on intergroup aggressiveness", "assay_type": "in vivo", "protocol": "Cet effet pourrait résulter de la sédation qui se manifeste à faible dose (4 mg/kg) et de l'excitation motrice qui se manifeste à forte dose (64 mg/kg)."}, "[16]": {"details": "souris, 0,25 mg/kg, 1 mg/kg, 4 mg/kg et 16 mg/kg i.p."}}, "data": [{"smiles": "CCN1CCOC(c2ccccc2)C1", "note": "(stereo not shown) [CRL 40914, Chlorhydratede 2-phényl-4-éthyl-morpholine]", "values": [{"measurement": "stéréotypies induites par l'apomorphine", "setting": "[1]; rat, 0,5 mg/kg, 2 mg/kg et 8 mg/kg i.p.", "result": "semble diminuer modérément l'intensité des téréotypies induites par l'apomorphine"}, {"measurement": "stéréotypies induites par l'apomorphine", "setting": "[1]; rat, 32 mg/kg i.p.", "result": "potentialisation discrète des stéréotypies"}, {"measurement": "activité motrice chez la souris habituée à son enceinte", "setting": "[2]", "result": "reprise très nette de l'activité motrice"}, {"measurement": "résultats cliniques (agent antidépresseur du SNC)", "setting": "[3]", "result": "d'excellents résultats"}, {"measurement": "hypomotilité produite par le CRL 40914 après yohimbine", "setting": "[4]; CRL 40914 1 mg/kg", "result": "s'oppose à l'hypomotilité"}, {"measurement": "hypomotilité produite par le CRL 40914 après yohimbine", "setting": "[4]; CRL 40914 16 mg/kg", "result": "ne modifie pas celle provoquée par 16 mg/kg"}, {"measurement": "effet sur la pression artérielle", "setting": "[5]", "result": "modérément hypotenseur"}, {"measurement": "temps de l'effet maximal sur la pression artérielle", "setting": "[5]", "result": 7, "unit": "h"}, {"measurement": "variation de la pression artérielle", "setting": "[5]; 7 h après", "result": -18, "unit": "%"}, {"measurement": "pression artérielle (effet maximal)", "setting": "[5]; 7 h après, valeur initiale 165", "result": 135, "unit": "mm Hg"}, {"measurement": "pression artérielle et fréquence cardiaque après 24 h", "setting": "[5]; 24 h", "result": "sont revenues à leur valeur témoin"}, {"measurement": "fréquence cardiaque (minimum)", "setting": "[5]; après 1,5 h, valeur initiale 350", "result": 270, "unit": "battements/minute"}, {"measurement": "hypothermie induite par le CRL 40914 après yohimbine", "setting": "[6]", "result": "empêche l'apparition de l'hypothermie"}, {"measurement": "durée d'immobilité", "setting": "[7]", "result": "diminue la durée d'immobilité"}, {"measurement": "apparition des convulsions et de la mort (anoxie asphyxique)", "setting": "[8]; 1 mg/kg, 4 mg/kg et 16 mg/kg i.p., triiodoéthylate de gallamine 32 mg/kg i.p.", "result": "retard d'apparition des convulsions et, à un degré moindre, de la mort"}, {"measurement": "apparition des convulsions et de la mort (anoxie asphyxique)", "setting": "[8]; dose plus élevée (above 16 mg/kg) i.p.", "result": "cet effet disparaît"}, {"measurement": "hypothermie et ptosis réserpiniques", "setting": "[9]", "result": "s'oppose à l'hypothermie et au ptosis réserpinique"}, {"measurement": "mouvements stéréotypés", "setting": "[10]; 32 mg/kg i.p.", "result": "ne provoque pas de stéréotypies"}, {"measurement": "mouvements stéréotypés", "setting": "[10]; 64 mg/kg i.p.", "result": "mouvements stéréotypés d'intensité et de durée comparables à ceux observés après administration de 1 mg/kg d'amphétamine"}, {"measurement": "mouvements stéréotypés", "setting": "[10]; 128 mg/kg i.p.", "result": "cet effet est encore plus net"}, {"measurement": "durée de l'hypothermie", "setting": "[11]; [16]", "result": "90 à 120 min"}, {"measurement": "température rectale", "setting": "[11]; [16]", "result": "hypothermie maximale après 30 min"}, {"measurement": "température rectale", "setting": "[11]; souris, 64 mg/kg i.p.", "result": "hyperthermie qui apparaît à 30 min et qui fait ensuite place à une hypothermie modérée"}, {"measurement": "durée du sommeil induit par le barbital", "setting": "[12]; 4 mg/kg et 16 mg/kg i.p.", "result": "semble prolonger modérément la durée du sommeil induit par le barbital"}, {"measurement": "durée du sommeil induit par le barbital", "setting": "[12]; 64 mg/kg i.p.", "result": "antagonisme net"}, {"measurement": "mydriase", "setting": "[13]; 2 mg/kg i.p.", "result": "mydriase pendant 1 h"}, {"measurement": "sédation", "setting": "[13]; 2 mg/kg i.p.", "result": "sédation pendant 30 à 60 min"}, {"measurement": "hypothermie", "setting": "[13]; 2 mg/kg i.p., pendant 1 à 2 h", "result": "-3,6 °C"}, {"measurement": "mydriase", "setting": "[13]; 4 mg/kg i.p.", "result": "mydriase pendant 1 heure"}, {"measurement": "sédation", "setting": "[13]; 4 mg/kg i.p.", "result": "sédation pendant 30 à 60 min"}, {"measurement": "hypothermie", "setting": "[13]; 4 mg/kg i.p., pendant 1 h", "result": "-2,2 °C"}, {"measurement": "excitation", "setting": "[13]; 16 mg/kg i.p.", "result": "excitation pendant 30 min suivie d'une hyporéactivité au toucher"}, {"measurement": "lacrymation", "setting": "[13]; 16 mg/kg i.p.", "result": "lacrymation pendant 1 h"}, {"measurement": "mydriase", "setting": "[13]; 16 mg/kg i.p.", "result": "mydriase pendant 1 h"}, {"measurement": "hypothermie", "setting": "[13]; 16 mg/kg i.p., pendant 2 à 3 h", "result": "-2,8 °C"}, {"measurement": "excitation", "setting": "[13]; 64 mg/kg i.p.", "result": "excitation pendant 1 à 2 h avec manifestation de mouvements stéréotypés"}, {"measurement": "mydriase", "setting": "[13]; 64 mg/kg i.p.", "result": "mydriase pendant 1 h"}, {"measurement": "piloérection, salivation et lacrymation", "setting": "[13]; 64 mg/kg i.p.", "result": "piloérection, salivation et lacrymation pendant 1 h"}, {"measurement": "polypnée", "setting": "[13]; 64 mg/kg i.p.", "result": "polypnée pendant 2 h"}, {"measurement": "activité motrice spontanée", "setting": "[14]; 64 mg/kg i.p.", "result": "hyperactivité nette"}, {"measurement": "activité motrice spontanée", "setting": "[14]; dès 0,125 mg/kg i.p., maximum entre 0,5 mg/kg et 16 mg/kg", "result": "diminution de l'activité motrice spontanée"}, {"measurement": "combats (agressivité intergroupe)", "setting": "[15]; 4 mg/kg", "result": "supprime les combats entre les souris de 2 groupes différents"}, {"measurement": "durée de contact entre les souris (agressivité intergroupe)", "setting": "[15]; 64 mg/kg", "result": "diminue la durée de contact entre les souris"}]}]}
